In assay [1] the target is T1, LFA-1 binding to immobilized ICAM-1 (Homo sapiens, UniProt P05107+P20701).
T1 construct: made in house; host or cells: transfected 293 cells (LFA-1)
The assay can be described thus: LFA-1/ICAM-1 Protein-Protein Assay (solid-phase ELISA). Particulars: 5dICAM-Ig coated plates, membrane-bound LFA-1 from transfected 293 cells. As to the method: LFA-1/ICAM-1 Protein-Protein Assay
LFA-1/ICAM-1 antagonist activity, defined as the ability to block LFA-1 binding to immobilized ICAM-1, was quantitated using a solid-phase ELISA. Typically, fusion protein consisting of the entire extracellular domain of human ICAM-1 and the Fc domain of human IgG (5dICAM-Ig) was coated onto 96-well microtiter plates (0.15 μg in 100 μL PBS) overnight at 4° C. The plates were then blocked with 150 μL of 1% BSA/1 mM MnCl2/0.14 M NaCl/20 mM HEPES, pH 7.2 for 1 h at 37° C. and washed 3 times (150 μL each) with Wash Buffer (50 mM Tris, pH 7.4/100 mM NaCl/1 mM MnCl2/0.05% Tween 20). Stock solutions (100 μM in 100% DMSO) of test compounds were diluted 50 fold with 150 μL of Binding Buffer (0.05% BSA/0.05% Tween 20/1 mM MnCl2/0.14 M NaCl/20 mM HEPES, pH 7.2) plus 10% DMSO. A series of 1:4 dilutions were performed to achieve a concentration range of 0.12 nM-2 μM. Fifty μL per well of each dilution was added to the ICAM-1 coated plates, followed by 50 μL per well of membrane-bound LFA-1 (280 ng/mL in Binding Buffer) derived from transfected 293 cells. The plates were shaken vigorously for 1 min (room temperature) and gently for 2 h (37° C.). After incubation, the plates were washed 3 times (150 μL each) with Wash Buffer. Mouse anti-human integrin β2 monoclonal antibody was added (100 μL/well, 1 μg/ml in Binding Buffer) and allowed to incubate for 1 h (37° C.) with gentle agitation. The plates were then washed 3 times with Wash Buffer. HRP-conjugated goat anti-mouse IgG (100 μL/well, 1:1500 dilution in Binding Buffer) was added to each well, followed by incubation for 1 h (37° C.) and concluded by three washes (150 μL each) with Wash Buffer. TMB solution (100 μL per well) was added for color development (10 min). The reaction was stopped by the addition of 100 μL of 1M H3PO4 to each well. The plates were then read at 450 nm.

Assay [2] relates to T lymphocyte proliferation (murine spleen cells). As to the kind of experiment: Mixed Lymphocyte Reaction (MLR), one-way. The assay is classed as cell-based, mice. Particulars: C57B1/6 spleen cells with irradiated BALB/c spleen cells, tritiated thymidine incorporation, 3 days. From the text:
Mixed Lymphocyte Reaction (MLR)
Admixture of murine spleen cells from two different inbred strains of mice induces proliferation of T lymphocytes. The magnitude of T cell proliferation depends on the extent of disparity in the major histocompatibility antigens between the two strains. Splenic T lymphocytes from both strains proliferate due to alloantigen recognition, a process for which the interaction of ICAM-1 on antigen-presenting cells with LFA-1 on lymphocytes is necessary. The ability of antagonists to inhibit T lymphocyte proliferation following recognition of alloantigens was assessed in a one-way MLR, where cells from one strain were irradiated to permit measurement of the proliferative response of cells from the other strain. Spleen cells were washed three times in tissue culture medium (TCM; see below). Fifty microliters of a spleen cell suspension (prepared at 10×10^6 cells/ml in TCM) obtained from C57B1/6 mice were added to an equal number of lethally-irradiated (2000 rads) spleen cells obtained from BALB/c mice in a 96-well U-bottom tissue culture plate (Costar, 3799). One hundred microliters of serial dilutions of antagonists or TCM were added to the spleen cell mixture. The total volume in each well was 200 μL. TCM was RPMI1640 containing 10% heat-inactivated fetal bovine serum, […] L-glutamine, 100 Units/ml each of penicillin and streptomycin and 5×10^−5 M 2-mercaptoethanol. Dilutions of antagonists were prepared in TCM. Plates were incubated in 5% CO2 for 3 days. On the third day, 0.5 μCi of tritiated thymidine (10 μCi/mL) was added to all the wells. Cells were harvested 6 h later on a 96-well plate harvester and the amount of tritiated thymidine incorporated was assessed in a liquid scintillation counter.

[3] abbreviates: Mus musculus, T-lymphocyte, light or radiation study, 72 h.

T1 sequence (P20701 26-1170): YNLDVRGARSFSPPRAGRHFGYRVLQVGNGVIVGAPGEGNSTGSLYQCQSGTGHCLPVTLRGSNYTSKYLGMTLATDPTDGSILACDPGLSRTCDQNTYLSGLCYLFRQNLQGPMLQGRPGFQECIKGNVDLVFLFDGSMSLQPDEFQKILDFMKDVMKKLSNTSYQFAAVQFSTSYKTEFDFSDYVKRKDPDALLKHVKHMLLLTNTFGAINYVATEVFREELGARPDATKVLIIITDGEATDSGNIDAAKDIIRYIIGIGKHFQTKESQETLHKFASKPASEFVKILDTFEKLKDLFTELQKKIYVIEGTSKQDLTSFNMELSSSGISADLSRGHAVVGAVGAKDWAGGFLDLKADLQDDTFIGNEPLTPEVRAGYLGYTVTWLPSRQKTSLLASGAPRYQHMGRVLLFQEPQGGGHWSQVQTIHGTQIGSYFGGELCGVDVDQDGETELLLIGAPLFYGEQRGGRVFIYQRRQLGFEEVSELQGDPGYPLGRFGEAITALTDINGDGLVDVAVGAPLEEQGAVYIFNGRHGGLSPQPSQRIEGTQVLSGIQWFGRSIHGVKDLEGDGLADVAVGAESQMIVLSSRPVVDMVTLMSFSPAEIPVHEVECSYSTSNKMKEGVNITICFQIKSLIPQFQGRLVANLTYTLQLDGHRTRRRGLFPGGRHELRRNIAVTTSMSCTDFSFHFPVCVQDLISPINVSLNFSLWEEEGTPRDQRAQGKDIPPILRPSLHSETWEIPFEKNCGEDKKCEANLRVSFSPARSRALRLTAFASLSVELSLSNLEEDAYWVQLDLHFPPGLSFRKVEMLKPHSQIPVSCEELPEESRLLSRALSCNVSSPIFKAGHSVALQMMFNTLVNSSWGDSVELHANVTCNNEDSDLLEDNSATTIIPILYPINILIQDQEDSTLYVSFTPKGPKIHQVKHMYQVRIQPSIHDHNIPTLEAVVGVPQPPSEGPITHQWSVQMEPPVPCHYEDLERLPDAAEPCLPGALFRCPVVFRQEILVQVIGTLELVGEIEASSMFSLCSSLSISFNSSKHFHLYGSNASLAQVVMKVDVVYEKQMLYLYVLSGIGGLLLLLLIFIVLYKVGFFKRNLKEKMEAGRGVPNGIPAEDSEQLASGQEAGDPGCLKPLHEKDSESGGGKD
T1 sequence (P05107 23-769): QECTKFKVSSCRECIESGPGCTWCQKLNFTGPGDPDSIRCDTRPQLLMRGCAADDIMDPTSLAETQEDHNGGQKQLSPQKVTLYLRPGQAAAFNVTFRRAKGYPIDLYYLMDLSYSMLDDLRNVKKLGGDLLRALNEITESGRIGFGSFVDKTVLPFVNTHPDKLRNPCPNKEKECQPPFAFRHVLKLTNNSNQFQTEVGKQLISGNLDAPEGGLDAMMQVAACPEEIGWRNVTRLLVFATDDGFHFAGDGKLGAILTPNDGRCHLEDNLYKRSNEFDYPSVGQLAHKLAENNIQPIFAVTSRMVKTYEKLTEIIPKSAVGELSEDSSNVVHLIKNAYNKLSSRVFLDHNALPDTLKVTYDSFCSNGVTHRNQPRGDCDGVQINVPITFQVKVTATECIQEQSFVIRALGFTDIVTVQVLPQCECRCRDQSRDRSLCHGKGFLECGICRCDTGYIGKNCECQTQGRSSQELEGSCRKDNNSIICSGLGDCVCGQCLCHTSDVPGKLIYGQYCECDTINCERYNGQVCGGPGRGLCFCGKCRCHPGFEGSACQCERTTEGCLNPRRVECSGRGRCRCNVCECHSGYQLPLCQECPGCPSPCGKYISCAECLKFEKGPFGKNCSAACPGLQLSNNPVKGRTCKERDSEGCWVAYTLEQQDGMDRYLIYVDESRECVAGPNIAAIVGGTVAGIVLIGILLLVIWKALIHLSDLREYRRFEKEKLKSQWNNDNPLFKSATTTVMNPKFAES

`Cc1nc(C)c(/C=C(\NC(=O)c2ccc(C(O)CCc3cccc(O)c3)cc2Cl)C(=O)O)s1` (racemic) [Example 297, rac.-(Z)-2-[[2-Chloro-4-[1-hydroxy-3-(3-hydroxyphenyl)propan-1-yl]benzoyl]amino]-3-(2,4-dimethylthiazol-5-yl)propenoic Acid]: the concentration for half-maximal inhibition (IC50) in assay [1] is 5.96 nM; in assay [2] (setting [3]), 5700 nM.
Consider `O=C(O)/C(=C/c1cnc2ccccc2c1)NC(=O)c1ccc(C(=O)NCc2cccc(O)c2)cc1Br` [Example 277], for which the IC50 in assay [1] was found to be 0.53 nM; in assay [2] (setting [3]), 356 nM.
For the molecule `Cc1cc(C(=O)NCc2cccc(O)c2)cc(Cl)c1C(=O)N/C(=C\c1ccccc1)C(=O)O` [Example 293, (Z)-2-[[2-Chloro-4-[[(3-hydroxybenzyl)amino]carbonyl]-6-methylbenzoyl]amino]-3-phenylpropenoic Acid], the IC50 in assay [1] was determined as 1.29 nM; in assay [2] (setting [3]) it was 7100 nM.
As to `O=C(O)/C(=C/c1nccs1)NC(=O)c1ccc(C(=O)NCc2cccc(O)c2)cc1Br` [Example 268, (Z)-2-[[2-Bromo-4-[[(3-hydroxybenzyl)amino]carbonyl]benzoyl]amino]-3-(thiazol-2-yl)propenoic Acid], the IC50 in assay [1] came out at 10.6 nM; in assay [2] (setting [3]) it was 9000 nM.
The like results for `O=C(O)/C(=C/c1ccc2ccccc2c1)NC(=O)c1ccc(C(=O)NCc2cccc(O)c2)cc1Br` [Example 274] were, in that order, 0.62 nM and 1650 nM.
Turning to `Cc1nc(C)c(/C=C(\NC(=O)c2ccc(C(=O)NCc3cccc(O)c3)cc2Br)C(=O)O)s1` [Example 258], the IC50 in assay [1] was 2.33 nM; in assay [1] (mono sodium salt) it was 2.01 nM; in assay [2] (listed as 258^b) it was 2740 nM; in assay [2] (setting [3]), 2050 nM.
Turning to `O=C(O)/C(=C/c1cnc2ccccc2c1)NC(=O)c1ccc(C(O)CCc2cccc(O)c2)cc1Cl` (racemic) [Example 296, rac.-(Z)-2-[[2-Chloro-4-[1-hydroxy-3-(3-hydroxyphenyl)propan-1-yl]benzoyl]amino]-3-(quinolin-3-yl)propenoic Acid], the IC50 in assay [1] was 1.56 nM; in assay [2] (setting [3]), 2400 nM.
For the molecule `O=C(O)/C(=C/c1ccccn1)NC(=O)c1ccc(C(=O)NCc2cccc(O)c2)cc1Br` [Example 273], the IC50 in assay [1] came out at 5.4 nM; in assay [2] (setting [3]) it was 1400 nM.
Consider `O=C(O)/C(=C/c1cnc2ccccc2c1)NC(=O)c1ccc(C(=O)NCc2cccc(O)c2)cc1Cl` [Example 283], for which the IC50 in assay [1] turned out to be 0.79 nM; in assay [2] (setting [3]) it was 370 nM.
Taken in the same sequence, the figures for `O=C(O)/C(=C/c1ccc2nsnc2c1)NC(=O)c1ccc(C(=O)NCc2cccc(O)c2)cc1Cl` [Example 247] were 2 nM and 5150 nM.
Taken in the same sequence, the figures for `Cc1nc(C)c(/C=C(\NC(=O)c2c(C)cc(C(=O)NCc3cccc(O)c3)cc2C)C(=O)O)s1` [Example 248] were 3.96 nM and 24000 nM.
As to `O=C(O)/C(=C/c1ccc2ncsc2c1)NC(=O)c1ccc(C(=O)NCc2cccc(O)c2)cc1Cl` [Example 245], the values for the IC50 in assay [1] and in assay [2] (setting [3]) were 0.94 nM and 1380 nM, respectively.
As to `Cn1ccc2ccc(/C=C(\NC(=O)c3ccc(C(=O)NCc4cccc(O)c4)cc3Cl)C(=O)O)cc21` [Example 305], the IC50 in assay [1] is 4.13 nM; in assay [2] (setting [3]), 7250 nM.
Turning to `Cc1nc(C)c(/C=C(\NC(=O)c2ccc(C(=O)NCc3cccc(N)c3)cc2Br)C(=O)O)s1` [Example 321], the IC50 in assay [1] stood at 7.52 nM; in assay [2] (setting [3]), 11500 nM.
For `Cc1nc(C)c(/C=C(\NC(=O)c2c(C)cc(C(=O)NCc3cc(F)cc(F)c3)cc2C)C(=O)O)s1` [Example 254], the IC50 in assay [1] worked out at 110 nM; in assay [2] (setting [3]), 95000 nM.
Taken in the same sequence, the figures for `CN(C)c1ncc(/C=C(\NC(=O)c2ccc(C(=O)NCc3cccc(O)c3)cc2Br)C(=O)O)s1` [Example 260] were 0.77 nM and 3000 nM.
On to `O=C(O)/C(=C/c1cnc(N2CCOCC2)s1)NC(=O)c1ccc(C(=O)NCc2cccc(O)c2)cc1Br` [Example 261], for which the IC50 in assay [1] is 39.6 nM; in assay [2] (setting [3]), 26000 nM.
As to `O=C(O)/C(=C/c1ccc2[nH]nnc2c1)NC(=O)c1ccc(C(=O)NCc2cccc(O)c2)cc1Br` [Example 285], the IC50 came to 1.14 nM in assay [1] (disodium salt), 0.34 nM in assay [1] (trifluoroacetate salt), 190 nM in assay [2] (listed as 285^c) and 235 nM in assay [2] (setting [3]).
Regarding `Cc1nc(C)c(/C=C(\NC(=O)c2ccc(C(=O)CCc3cccc(O)c3)cc2Cl)C(=O)O)s1` [Example 295], the IC50 in assay [1] was 3 nM; in assay [2] (setting [3]), 10000 nM.
Regarding `Cc1nc(C)c(/C=C(\NC(=O)c2c(C)cc(C(=O)N[C@H](C)c3cccc4ccccc34)cc2C)C(=O)O)s1` [Example 251], the values for the IC50 in assay [1] and in assay [2] (setting [3]) were 20.5 nM and 20000 nM, respectively.
Taken in the same sequence, the figures for `O=C(O)/C(=C/c1ccccc1)NC(=O)c1ccc(C(=O)NCc2cccc3[nH]ccc23)cc1Cl` [Example 306] were 10.4 nM and 13800 nM.
For the molecule `Cc1nnsc1/C=C(\NC(=O)c1ccc(C(=O)NCc2cccc(O)c2)cc1Br)C(=O)O` [Example 263], the IC50 in assay [1] was found to be 6.86 nM; in assay [2] (setting [3]) it was 2850 nM.
The like results for `O=C(O)/C(=C/c1cnc2ccccc2c1)NC(=O)c1ccc(C(=O)NCc2cccc3[nH]ccc23)cc1Br` [Example 255] were, in that order, 5.82 nM and 14800 nM.
As to `Cc1nc(C)c(/C=C(\NC(=O)c2ccc(C(=O)NCc3cccc4[nH]ccc34)cc2Br)C(=O)O)s1` [Example 249], the IC50 in assay [1] came to 5.78 nM; in assay [2] (setting [3]), 16000 nM.
Turning to `O=C(O)/C(=C/c1ccc(Br)cc1)NC(=O)c1ccc(C(=O)NCc2cccc(O)c2)cc1Cl` [Example 314, (Z)-3-(4-Bromophenyl)-2-[[2-chloro-4-[[(3-hydroxybenzyl)amino]carbonyl]benzoyl]amino]propenoic Acid], the IC50 in assay [1] stood at 3.05 nM; in assay [2] (setting [3]) it was 6100 nM.
The like results for `Cc1cc(C(=O)NCc2cccc(O)c2)ccc1C(=O)N/C(=C\c1ccccc1)C(=O)O` [Example 311] were, in that order, 11.8 nM and 10500 nM.
Taken in the same sequence, the figures for `O=C(O)/C(=C/c1csc2ccccc12)NC(=O)c1ccc(C(=O)NCc2cccc(O)c2)cc1Br` [Example 264] were 4.2 nM and 13000 nM.
The like results for `O=C(O)/C(=C/c1ccc2ncsc2c1)NC(=O)c1ccc(C(=O)NCc2cccc3[nH]ccc23)cc1Br` [Example 267] were, in that order, 6.37 nM and 6380 nM.
With `O=C(O)/C(=C/c1ccccc1)NC(=O)c1ccc(C(=O)NCc2cccc(O)c2)cc1Br` [Example 269], the values for the IC50 in assay [1] and in assay [2] (setting [3]) were 4.31 nM and 2200 nM, respectively.
Consider `Cc1cc(C(=O)NCc2cccc(O)c2)cc(Cl)c1C(=O)N/C(=C\c1ccc2[nH]nnc2c1)C(=O)O` [Example 291, (Z)-3-(1H-Benzotriazol-5-yl)-2-[[2-chloro-4-[[(3-hydroxybenzyl)amino]carbonyl]-6-methylbenzoyl]amino]propenoic Acid], for which the IC50 in assay [1] came to 0.4 nM; in assay [2] (setting [3]), 515 nM.
